Source: ChEMBL document CHEMBL1201862, “PubChem BioAssay data set” (2004)
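Tested at 5 concentrations; 48 h exposure; 96-well plates; endpoints linearly interpolated, else capped at highest concentration. Here, GI50 denotes the concentration required for 50% inhibition of growth.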 Calls of active or inactive are those of the source. Cut-off read from the data, not from the text of the source: active = GI50 up to about 1.1 µM and inactive = higher.

Key:
Test in all cases: NCI anticancer screen, dose series, 48 h
[1] = system: HCT-15
[2] = system: HOP-62
[3] = system: HOP-92
[4] = system: HT-29
[5] = system: K562
[6] = system: KM12
[7] = system: M14
[8] = system: MDA-MB-231
[9] = system: MDA-MB-435
[10] = system: NCI-H23
[11] = system: NCI-H460
[12] = system: OVCAR-3
[13] = system: RXF 393
[14] = system: SF-268
[15] = system: SK-MEL-28
[16] = system: SK-MEL-5
[17] = system: SNB-75
[18] = system: T47D
[19] = system: U-251

SMILES | GI50 [1] [µM] | GI50 [2] | GI50 [3] | GI50 [4] | GI50 [5] | GI50 [6] | GI50 [7] | GI50 [8] | GI50 [9] | GI50 [10] | GI50 [11] | GI50 [12] | GI50 [13] | GI50 [14] | GI50 [15] | GI50 [16] | GI50 [17] | GI50 [18] | GI50 [19]
CC(C)(C(=O)N(C(=O)N1CCN(c2ccccc2)CC1)S(=O)(=O)c1ccccc1)c1ccc(Cl)cc1 | 7.94 | 27.5 µM (inactive) | 5.43 µM (inactive) | 21.4 µM (inactive) | 5.68 µM (inactive) | 19.3 µM (inactive) | 31.3 µM (inactive) | 31.7 µM (inactive) | 51.2 µM (inactive) | 16.3 µM (inactive) | 28.8 µM (inactive) | 18.7 µM (inactive) | > 100 µM (inactive) | 34.4 µM (inactive) | > 100 µM (inactive) | 35.7 µM (inactive) | 77.1 µM (inactive) | 29.2 µM (inactive) | 6.32 µM (inactive)
COc1ncc(C#CC(=O)c2ccccc2OC)c(OC)n1 | 0.621 | 17.7 µM (inactive) | 2.32 µM (inactive) | 1.57 µM (inactive) | 0.39 µM (active) | 5.7 µM (inactive) | 1.78 µM (inactive) | 0.92 µM (active) | 2.78 µM (inactive) | 2.73 µM (inactive) | 6.34 µM (inactive) | 3.15 µM (inactive) | 1.71 µM (inactive) | 3.61 µM (inactive) | 2.86 µM (inactive) | 2.06 µM (inactive) | 4.03 µM (inactive) | 2.93 µM (inactive) | 3.89 µM (inactive)
Clc1ccc(-c2nn3c(COc4ccc(OCc5nnc6sc(-c7ccc(Cl)cc7)nn56)c(Cl)c4)nnc3s2)cc1 | 28 | 23.2 µM (inactive) | 17.5 µM (inactive) | 17.5 µM (inactive) | 25.1 µM (inactive) | 29.4 µM (inactive) | 31.7 µM (inactive) | 32.2 µM (inactive) | 33.7 µM (inactive) | 21.1 µM (inactive) | 52 µM (inactive) | 45.4 µM (inactive) | 15.8 µM (inactive) | 15.6 µM (inactive) | 31.3 µM (inactive) | 20.9 µM (inactive) | 12.7 µM (inactive) | 36.5 µM (inactive) | 21.8 µM (inactive)
CSCCC(NC(=O)Cc1ccc(C(=O)c2ccccc2)cc1)C(=O)O (stereo not given) | > 100 | > 100 µM (inactive) | > 100 µM (inactive) | > 100 µM (inactive) | > 100 µM (inactive) | > 100 µM (inactive) | > 100 µM (inactive) | > 100 µM (inactive) | > 100 µM (inactive) | > 100 µM (inactive) | > 100 µM (inactive) | > 100 µM (inactive) | > 100 µM (inactive) | > 100 µM (inactive) | > 100 µM (inactive) | > 100 µM (inactive) | > 100 µM (inactive) | > 100 µM (inactive) | > 100 µM (inactive)
CC(C)C(NC(=O)C(Cc1ccccc1)NC(=O)[C@H]1CCC[C@H]1NC(=O)C(Cc1ccc(OC(C)(C)C)cc1)NC(=O)OC(C)(C)C)C(N)=O (stereo not given in full) | 36.1 | 16.6 µM (inactive) | 21.8 µM (inactive) | 21.5 µM (inactive) | 17.8 µM (inactive) | 21.9 µM (inactive) | 18 µM (inactive) | 20.7 µM (inactive) | 17 µM (inactive) | 16.9 µM (inactive) | 19.2 µM (inactive) | 25.1 µM (inactive) | 81.1 µM (inactive) | 23.1 µM (inactive) | 18.4 µM (inactive) | 9.95 µM (inactive) | 11.4 µM (inactive) | 20 µM (inactive) | 14.2 µM (inactive)
N#CCCN(CCC#N)c1ccc(C(=N/c2ccc(F)cc2)/N=N/c2ccccc2)cc1 | > 100 | > 100 µM (inactive) | > 100 µM (inactive) | > 100 µM (inactive) | > 100 µM (inactive) | 35.5 µM (inactive) | > 100 µM (inactive) | 82.6 µM (inactive) | > 100 µM (inactive) | 96.8 µM (inactive) | 60.1 µM (inactive) | 95.3 µM (inactive) | 2.67 µM (inactive) | > 100 µM (inactive) | > 100 µM (inactive) | 83.6 µM (inactive) | 57.5 µM (inactive) | 15.1 µM (inactive) | 50.9 µM (inactive)
Cc1nc(O)nc2nc3ccc(Cl)cc3c(NC(C)(CO)CO)c12 | 88.3 | 21.2 µM (inactive) | 74.1 µM (inactive) | > 100 µM (inactive) | > 100 µM (inactive) | > 100 µM (inactive) | > 100 µM (inactive) | 31.6 µM (inactive) | > 100 µM (inactive) | 63.5 µM (inactive) | > 71.1 µM (inactive) | > 61.2 µM (inactive) | 20.1 µM (inactive) | 40.6 µM (inactive) | > 100 µM (inactive) | > 60 µM (inactive) | 24.2 µM (inactive) | 17.6 µM (inactive) | 36.8 µM (inactive)
C[Si](C)(c1ccccc1)[C@H]1CCCC=C1CCNC1c2ccccc2CCc2ccccc21 | 51.2 | > 100 µM (inactive) | 23.7 µM (inactive) | 28.7 µM (inactive) | 52.1 µM (inactive) | 77.3 µM (inactive) | 56.5 µM (inactive) | 89.7 µM (inactive) | 76.2 µM (inactive) | 61.5 µM (inactive) | 61.7 µM (inactive) | > 100 µM (inactive) | 80 µM (inactive) | > 100 µM (inactive) | > 100 µM (inactive) | 33.6 µM (inactive) | 67.3 µM (inactive) | 35.9 µM (inactive) | > 100 µM (inactive)
O=C1c2ccccc2/C(=N\c2ccc3ccccc3c2)C1(C1=C(c2ccccc2)/C(=N/c2ccc3ccccc3c2)c2ccccc21)c1ccccc1 (stereo not given) | 2.55 | 12.5 µM (inactive) | > 100 µM (inactive) | 3.48 µM (inactive) | 4.22 µM (inactive) | 4.14 µM (inactive) | 4.02 µM (inactive) | 15.3 µM (inactive) | 3.33 µM (inactive) | 4.09 µM (inactive) | 3.32 µM (inactive) | 73.3 µM (inactive) | > 24 µM (inactive) | 4.16 µM (inactive) | 6.27 µM (inactive) | 2.17 µM (inactive) | 7.67 µM (inactive) | 5.5 µM (inactive) | 9.75 µM (inactive)
O=C1c2ccccc2S(=O)(=O)c2cc(-c3nn[nH]n3)ccc21 [DOXANTRAZOLE] | > 100 | > 100 µM (inactive) | > 100 µM (inactive) | > 100 µM (inactive) | > 100 µM (inactive) | > 100 µM (inactive) | > 100 µM (inactive) | > 100 µM (inactive) | > 100 µM (inactive) | > 100 µM (inactive) | > 100 µM (inactive) | > 100 µM (inactive) | > 100 µM (inactive) | > 100 µM (inactive) | > 100 µM (inactive) | > 100 µM (inactive) | > 100 µM (inactive) | > 76.4 µM (inactive) | > 100 µM (inactive)
